Target: human APJ receptor (Homo sapiens (Human), UniProt P35414)
Experiment: [35S]GTPγS binding assay on membranes from CHO cells stably expressing human APJ receptor
Assay type: biochemical
Conditions: membranes of CHO cells stably expressing human APJ receptor, read-out: Activity hAPJ SPA EC50 IP
Method in brief: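 [35S]GTPγS binding measured on membranes from CHO cells stably expressing FLAG-tagged human APJ, with GDP, MgCl2 and NaCl levels optimized beforehand. Incubation 90 min at RT, imager read-out; EC50 from non-linear regression, averaged over several independent experiments.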

human APJ receptor, sequence (P35414 whole entry): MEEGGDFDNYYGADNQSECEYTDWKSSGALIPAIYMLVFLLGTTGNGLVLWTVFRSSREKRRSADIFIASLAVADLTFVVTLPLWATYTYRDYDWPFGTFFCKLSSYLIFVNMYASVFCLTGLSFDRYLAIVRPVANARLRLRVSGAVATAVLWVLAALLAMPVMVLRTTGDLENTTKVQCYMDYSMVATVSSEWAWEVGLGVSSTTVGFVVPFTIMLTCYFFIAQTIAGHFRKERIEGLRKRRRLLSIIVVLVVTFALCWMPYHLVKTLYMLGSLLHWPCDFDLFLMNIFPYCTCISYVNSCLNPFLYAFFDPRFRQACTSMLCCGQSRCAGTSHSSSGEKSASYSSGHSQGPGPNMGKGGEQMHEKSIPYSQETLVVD

| SMILES | EC50 |
| --- | --- |
| CC[C@H](c1c(C)noc1C)n1c(NS(=O)(=O)[C@@H](C)[C@H](OC)c2cnc(C)cn2)nnc1-c1cccc(OC)n1 (mixture of isomers) [Example 208.0, (1R,2S)-N-(4-((1R)-1-(3,5-dimethyl-1,2-oxazol-4-yl)propyl)-5-(6-methoxy-2-pyridinyl)-4H-1,2,4-triazol-3-yl)-1-methoxy-1-(5-methyl-2-pyrazinyl)-2-propanesulfonamide and (1R,2S)-N-(4-((1S)-1-(3,5-dimethyl-1,2-oxazol-4-yl)propyl)-5-(6-methoxy-2-pyridinyl)-4H-1,2,4-triazol-3-yl)-1-methoxy-1-(5-methyl-2-pyrazinyl)-2-propanesulfonamide] | 42 nM |
| COc1cccc(-c2nnc(NS(=O)(=O)[C@@H](C)[C@H](OC)c3ncc(Cl)cn3)n2[C@@H](C)c2ncnn2C)n1 (single isomer, unassigned) [Example 248.0, (1R,2S)-1-(5-chloro-2-pyrimidinyl)-1-methoxy-N-(5-(6-methoxy-2-pyridinyl)-4-((1S)-1-(1-methyl-1H-1,2,4-triazol-5-yl)ethyl)-4H-1,2,4-triazol-3-yl)-2-propanesulfonamide or (1R,2S)-1-(5-chloro-2-pyrimidinyl)-1-methoxy-N-(5-(6-methoxy-2-pyridinyl)-4-((1R)-1-(1-methyl-1H-1,2,4-triazol-5-yl)ethyl)-4H-1,2,4-triazol-3-yl)-2-propanesulfonamide] | 270 nM |
| COc1cccc(-c2nnc(NS(=O)(=O)[C@@H](C)[C@H](C)c3ncc(Cl)cn3)n2CC2COC2)n1 [Example 2.0, (2S,3R)-3-(5-chloro-2-pyrimidinyl)-N-(5-(6-methoxy-2-pyridinyl)-4-(3-oxetanylmethyl)-4H-1,2,4-triazol-3-yl)-2-butanesulfonamide] | > 4200 nM |
| COc1cc(Cn2c(NS(=O)(=O)[C@@H](C)[C@H](OC)c3ncc(Cl)cn3)nnc2-c2cccc(OC)n2)on1 [Example 197.0, (1R,2S)-1-(5-chloro-2-pyrimidinyl)-1-methoxy-N-(4-((3-methoxy-1,2-oxazol-5-yl)methyl)-5-(6-methoxy-2-pyridinyl)-4H-1,2,4-triazol-3-yl)-2-propanesulfonamide] | 12 nM |
| CO[C@H](c1ncc(Cl)cn1)[C@H](C)S(=O)(=O)Nc1nnc(-c2cncc(C)c2)n1C1CC12CC2 (mixture of isomers) [Example 150.0, (1R,2S)-1-(5-Chloropyrimidin-2-yl)-1-methoxy-N-(5-(5-methylpyridin-3-yl)-4-((R)-spiro[2.2]pentan-1-yl)-4H-1,2,4-triazol-3-yl)propane-2-sulfonamide and (1R,2S)-1-(5-chloropyrimidin-2-yl)-1-methoxy-N-(5-(5-methylpyridin-3-yl)-4-((S)-spiro[2.2]pentan-1-yl)-4H-1,2,4-triazol-3-yl)propane-2-sulfonamide] | 100 nM |
| COc1cccc(-c2nnc(NS(=O)(=O)[C@@H](C)[C@@H](OC(C)C)c3ncc(C)cn3)n2[C@@H](C)c2c(C)noc2C)n1 (racemic) [Example 316.0, (1S,2S)-N-(4-((R)-1-(3,5-dimethylisoxazol-4-yl)ethyl)-5-(6-methoxypyridin-2-yl)-4H-1,2,4-triazol-3-yl)-1-isopropoxy-1-(5-methylpyrimidin-2-yl)propane-2-sulfonamide or (1S,2S)-N-(4-((S)-1-(3,5-dimethylisoxazol-4-yl)ethyl)-5-(6-methoxypyridin-2-yl)-4H-1,2,4-triazol-3-yl)-1-isopropoxy-1-(5-methylpyrimidin-2-yl)propane-2-sulfonamide] | 21 nM |
| CC(C)O[C@@H](c1ncc(Cl)cn1)[C@H](C)S(=O)(=O)Nc1nnc(-c2cccnc2)n1C1CC1 [Example 128.0] | 55 nM |
| COc1cccc(-c2nnc(NS(=O)(=O)[C@@H](C)[C@H](OC)c3ncc(Cl)cn3)n2C2CC2)n1 [Example 69.0] | 0.89 nM |
| COC[C@H](C)n1c(NS(=O)(=O)[C@@H](C)[C@H](C)c2ncc(Cl)cn2)nnc1-c1cncc(C)c1 [Example 176.0, (2S,3R)-3-(5-chloro-2-pyrimidinyl)-N-(4-((2S)-1-methoxy-2-propanyl)-5-(5-methyl-3-pyridinyl)-4H-1,2,4-triazol-3-yl)-2-butanesulfonamide] | 110 nM |
| COc1cccc(-c2nnc(NS(=O)(=O)[C@@H](C)[C@H](OC)c3ncc(Cl)cn3)n2C[C@H]2CCC(C)(C)O2)n1 (single isomer, unassigned) [Example 289.0, (1R,2S)-1-(5-chloropyrimidin-2-yl)-N-(4-(((R)-5,5-dimethyltetrahydrofuran-2-yl)methyl)-5-(6-methoxyl)yridin-2-yl)-4H-1,2,4-triazol-3-yl)-1-methoxypropane-2-sulfonamide or (1R,2S)-1-(5-chloropyrimidin-2-yl)-N-(4-(((S)-5,5-dimethyltetrahydrofuran-2-yl)methyl)-5-(6-methoxypyridin-2-yl)-4H-1,2,4-triazol-3-yl)-1-methoxypropane-2-sulfonamide] | 82 nM |
| COCCn1c(NS(=O)(=O)[C@@H](C)[C@@H](OC(C)C)c2ncc(Cl)cn2)nnc1-c1cncc(C)c1 [Example 12.0, (1S,2S)-1-(5-chloro-2-pyrimidinyl)-N-(4-(2-methoxyethyl)-5-(5-methyl-3-pyridinyl)-4H-1,2,4-triazol-3-yl)-1-(2-propanyloxy)-2-propanesulfonamiide] | 120 nM |
| COc1cccc(-c2nnc(NS(=O)(=O)[C@@H](C)[C@H](C)c3ncc(Cl)cn3)n2[C@@H](C)c2c(C)noc2C)n1 (racemic) [Example 313.0, (2S,3R)-3-(5-chloropyrimidin-2-yl)-N-(4-((R)-1-(3,5-dimethylisoxazol-4-yl)ethyl)-5-(6-methoxypyridin-2-yl)-4H-1,2,4-triazol-3-yl)butane-2-sulfonamide or (2S,3R)-3-(5-chloropyrimidin-2-yl)-N-(4-((S)-1-(3,5-dimethylisoxazol-4-yl)ethyl)-5-(6-methoxypyridin-2-yl)-4H-1,2,4-triazol-3-yl)butane-2-sulfonamide] | 21 nM |
| COc1cccc(-c2nnc(NS(=O)(=O)[C@@H](C)[C@H](C)c3ncc(Cl)cn3)n2[C@@H](C)c2nc(C)no2)n1 (single isomer, unassigned) [Example 247.0, (2S,3R)-3-(5-chloro-2-pyrimidinyl)-N-(5-(6-methoxy-2-pyridinyl)-4-((1R)-1-(3-methyl-1,2,4-oxadiazol-5-yl)ethyl)-4H-1,2,4-triazol-3-yl)-2-butanesulfonamide or (2S,3R)-3-(5-chloro-2-pyrimidinyl)-N-(5-(6-methoxy-2-pyridinyl)-4-((1S)-1-(3-methyl-1,2,4-oxadiazol-5-yl)ethyl)-4H-1,2,4-triazol-3-yl)-2-butanesulfonamide] | 5.3 nM |
| COCC(COC)n1c(NS(=O)(=O)[C@@H](C)[C@H](OC)c2cnc(OC)cn2)nnc1-c1cccc(OC)n1 [Example 101.0] | 8.9 nM |
| COCC(COC)n1c(NS(=O)(=O)[C@@H](C)[C@H](C)c2ncc(Cl)cn2)nnc1-c1cccnc1 [Example 19.0, (2S,3R)-3-(5-chloro-2-pyrimidinyl)-N-(4-(1,3dimethoxy-2-propanyl)-5-(3-pyridinyl)-4H-1,2,4-triazol-3-yl)-2-butanesulfonamide] | 26 nM |
| COCC1(n2c(NS(=O)(=O)[C@@H](C)[C@H](OC)c3ncc(Cl)cn3)nnc2-c2cccnc2)CC1 [Example 60.0] | 1.2 nM |
| COc1cccc(-c2nnc(NS(=O)(=O)[C@@H](C)[C@H](OC)c3ncc(Cl)cn3)n2CC[S@+](C)[O-])n1 (single isomer, unassigned) [Example 94.0] | 1000 nM |

— patent US10689367B2, “Triazole pyridyl compounds as agonists of the APJ receptor” (AMGEN INC., priority 2016, dated 2020)
